The test system of assay [1] is 6-OH-dopamine induced turning behavior in rats. The assay can be described thus: 6-OH-dopamine induced turning behavior in rats. It is filed as in vivo. The settings on record: Rattus norvegicus, po, read-out: Antagonism of 6-OH dopamine induced turning behavior after oral dosing: ED50. The method, then: 6-OH-dopamine induced turning behavior in rats (Ungerstedt U, 6-OH-DA induced degeneration of central monoamine neurons, Eur. J. Pharmacol. 1968 5: 107-110). Specifically:
Male rats (Wistar, Harlan, Netherlands; 400-500 g at time of experiment) are housed in a temperature (20-21±2° C.) and humidity controlled environment and receive water ad libitum except during experimental sessions. Food is restricted to approximately 15 g per rat per day. A 12-hour light-dark cycle (lights on 07.00-19.00 hour) is used. All experimental procedures are conducted in accordance with Dutch law and conform to local animal care and use committee stipulations.
Unilateral 6-hydroxydopamine (6-OHDA) lesions of the substantia nigra zona compacta are performed using a stereotaxic procedure. […] Good turning rats are defined as those which elicited at least 20 contralateral turns following amphetamine (2.5 mg/kg sc) in the 5 min time epoch beginning 25 min after administration and a mean of at least 20 contralateral turns recorded over a 30 min period after administration of apomorphine (0.25 mg/kg s.c.). […]
Following statistical randomization of the treatment groups rats are pretreated with compounds of the invention (0.1-3 mg/kg p.o.) or vehicle (2 ml/kg) and placed in the rotameters the contralateral rotational behaviour is then measured. […]

Another assay concerns the target 5-HT1B (Rattus norvegicus, UniProt P28564). The assay can be described thus: In vitro receptor affinity, 5-HT1B. It is filed as binding. The method, then:
(§1) The binding data collected in the table below (Example 5: pharmacological test results) were either obtained by CEREP (128, rue Danton, 92500 Rueil-Malmaison, France) or at Solvay Pharmaceuticals B.V. (C. J. van Houtenlaan 36, 1381 CP Weesp, The Netherlands), using well documented standard procedures. The affinities for dopamine-D2 and 5-HT1A receptors for instance, was measured as described by Creese I, Schneider R and Snyder S H, [^3H]-Spiroperidol labels dopamine receptors in rat pituitary and brain, Eur J Pharmacol […], 46: 377-381 and Gozlan H, El Mestikawy S, Pichat L, Glowinsky J and Hamon M, 1983, Identification of presynaptic serotonin autoreceptors using a new ligand ^3H-PAT, Nature 1983, 305: 140-142.

For another assay, the target named is Dopamine-D2S (Homo sapiens, UniProt P14416). The assay can be described thus: In vitro receptor affinity, Dopamine-D2S. In kind it is binding. As for the experimental part:
as §1

The target in the next assay is Dopamine-D2 (Homo sapiens, UniProt P14416). The assay can be described thus: In vitro receptor affinity, Dopamine-D2. In kind it is binding. The method, then:
as §1

The target in another assay is β1-adrenergic (Homo sapiens, UniProt P08588). Description: In vitro receptor affinity, β1-adrenergic. In kind it is binding. The method, then:
as §1

The next assay has as its target α1A-adrenergic (Rattus norvegicus, UniProt P43140). The assay can be described thus: In vitro receptor affinity, α1A-adrenergic. It is filed as binding. The method, then: as §1
For another assay, the target named is 5-HT1A (Homo sapiens, UniProt P08908). The assay can be described thus: In vitro receptor affinity, 5-HT1A. In kind it is binding. As for the experimental part:
as §1

The test system of assay [2] is receptors for which the parent compound showed a high affinity. Description: In vitro screening of the N-oxide metabolite (receptor affinity overall). It is filed as binding. Particulars: affinity very low or below the detection limit.
Source text: In drug development, metabolites are routinely investigated for activity, toxicity, etc. […] These findings confirmed that in this case one of the most common situations with an N-oxide had occurred: metabolic deactivation.
as §1

For another assay, the target named is 5-HT7 (Homo sapiens, UniProt P34969). The assay can be described thus: In vitro receptor affinity, 5-HT7. In kind it is binding. As for the experimental part: as §1
The target in the next assay is 5-HT1D. Description: In vitro receptor affinity, 5-HT1D. In kind it is binding. The settings on record: bovine; radioligand [3H]-serotonin. As for the experimental part: as §1
A further assay concerns the target α1-adrenergic. The assay can be described thus: In vitro receptor affinity, α1-adrenergic. Particulars: rat; radioligand [3H]-prazosin. It is filed as binding. As for the experimental part:
as §1

Another assay addresses κ-opiate (Rattus norvegicus, UniProt P34975). Description: In vitro receptor affinity, κ-opiate. In kind it is binding. As for the experimental part:
as §1

The target in the next assay is 5-HT3 (Rattus norvegicus, UniProt P35563). The assay can be described thus: In vitro receptor affinity, 5-HT3. In kind it is binding. The method, then: as §1
For a further assay, the target named is α2C-adrenergic (Homo sapiens, UniProt P18825). The assay can be described thus: In vitro receptor affinity, α2C-adrenergic. In kind it is binding. As for the experimental part:
as §1

The target in another assay is Dopamine-D4 (Homo sapiens, UniProt P21917). The assay can be described thus: In vitro receptor affinity, Dopamine-D4. It is filed as binding. The method, then:
as §1

In another assay the target is 5-HT2C (Homo sapiens, UniProt P28335). The assay can be described thus: In vitro receptor affinity, 5-HT2C. In kind it is binding. As for the experimental part:
as §1

The target in another assay is β2-adrenergic (Homo sapiens, UniProt P07550). The assay can be described thus: In vitro receptor affinity, β2-adrenergic. It is filed as binding. The method, then: as §1
The target in the next assay is Dopamine-D1 (Homo sapiens, UniProt P21728). Description: In vitro receptor affinity, Dopamine-D1. It is filed as binding. As for the experimental part:
as §1

Results on one compound are retold here after patent US7750013B2, “N-oxides as prodrugs of piperazine and piperidine derivatives” (Solvay Pharmaceuticals, B.V., priority 2005, dated 2010).

Dopamine-D4, sequence (P21917 whole entry): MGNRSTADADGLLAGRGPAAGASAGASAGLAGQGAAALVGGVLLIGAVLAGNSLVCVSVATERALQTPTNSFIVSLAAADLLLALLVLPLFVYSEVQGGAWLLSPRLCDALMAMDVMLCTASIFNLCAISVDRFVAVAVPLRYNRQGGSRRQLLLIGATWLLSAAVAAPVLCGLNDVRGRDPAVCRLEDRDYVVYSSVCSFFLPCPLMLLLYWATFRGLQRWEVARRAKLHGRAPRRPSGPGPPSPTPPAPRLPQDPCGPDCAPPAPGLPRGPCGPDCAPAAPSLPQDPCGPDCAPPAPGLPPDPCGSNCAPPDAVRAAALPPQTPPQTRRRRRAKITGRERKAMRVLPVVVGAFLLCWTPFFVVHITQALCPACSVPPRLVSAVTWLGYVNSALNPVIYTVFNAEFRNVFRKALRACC
Dopamine-D2, sequence (P14416 whole entry): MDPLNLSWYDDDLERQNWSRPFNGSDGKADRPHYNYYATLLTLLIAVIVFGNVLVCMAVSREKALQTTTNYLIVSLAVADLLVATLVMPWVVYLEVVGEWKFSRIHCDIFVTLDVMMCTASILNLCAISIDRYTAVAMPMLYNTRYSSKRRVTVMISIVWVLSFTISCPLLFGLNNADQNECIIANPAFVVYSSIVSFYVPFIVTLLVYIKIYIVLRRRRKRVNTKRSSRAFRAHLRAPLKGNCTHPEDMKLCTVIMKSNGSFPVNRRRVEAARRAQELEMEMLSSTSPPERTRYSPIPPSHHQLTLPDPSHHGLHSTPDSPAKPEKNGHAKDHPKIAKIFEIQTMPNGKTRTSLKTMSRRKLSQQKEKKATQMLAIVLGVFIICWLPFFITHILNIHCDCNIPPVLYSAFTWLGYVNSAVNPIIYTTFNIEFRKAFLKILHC
β2-adrenergic, sequence (P07550 whole entry): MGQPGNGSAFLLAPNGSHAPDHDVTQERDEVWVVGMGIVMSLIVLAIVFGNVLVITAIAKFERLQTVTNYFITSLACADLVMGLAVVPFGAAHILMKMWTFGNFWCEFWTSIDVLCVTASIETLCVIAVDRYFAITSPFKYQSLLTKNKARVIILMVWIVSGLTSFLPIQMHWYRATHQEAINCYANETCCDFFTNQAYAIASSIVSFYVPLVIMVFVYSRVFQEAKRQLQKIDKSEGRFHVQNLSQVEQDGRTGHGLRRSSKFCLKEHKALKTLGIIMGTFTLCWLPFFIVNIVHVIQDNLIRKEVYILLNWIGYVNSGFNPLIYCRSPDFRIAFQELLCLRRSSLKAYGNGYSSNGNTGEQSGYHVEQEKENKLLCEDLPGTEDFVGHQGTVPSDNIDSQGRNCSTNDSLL
Dopamine-D1, sequence (P21728 whole entry): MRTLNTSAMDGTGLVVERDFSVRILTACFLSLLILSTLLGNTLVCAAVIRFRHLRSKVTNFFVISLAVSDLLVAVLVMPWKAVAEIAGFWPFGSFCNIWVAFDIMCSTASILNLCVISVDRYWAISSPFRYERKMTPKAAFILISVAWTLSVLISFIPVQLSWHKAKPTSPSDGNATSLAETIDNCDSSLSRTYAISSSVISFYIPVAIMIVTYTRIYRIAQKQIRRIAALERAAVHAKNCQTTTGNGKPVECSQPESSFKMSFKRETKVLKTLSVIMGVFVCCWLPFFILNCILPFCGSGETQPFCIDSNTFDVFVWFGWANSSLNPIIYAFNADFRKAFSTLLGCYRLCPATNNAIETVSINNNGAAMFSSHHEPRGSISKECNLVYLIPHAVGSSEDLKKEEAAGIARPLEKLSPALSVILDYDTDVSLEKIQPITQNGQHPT
κ-opiate, sequence (P34975 whole entry): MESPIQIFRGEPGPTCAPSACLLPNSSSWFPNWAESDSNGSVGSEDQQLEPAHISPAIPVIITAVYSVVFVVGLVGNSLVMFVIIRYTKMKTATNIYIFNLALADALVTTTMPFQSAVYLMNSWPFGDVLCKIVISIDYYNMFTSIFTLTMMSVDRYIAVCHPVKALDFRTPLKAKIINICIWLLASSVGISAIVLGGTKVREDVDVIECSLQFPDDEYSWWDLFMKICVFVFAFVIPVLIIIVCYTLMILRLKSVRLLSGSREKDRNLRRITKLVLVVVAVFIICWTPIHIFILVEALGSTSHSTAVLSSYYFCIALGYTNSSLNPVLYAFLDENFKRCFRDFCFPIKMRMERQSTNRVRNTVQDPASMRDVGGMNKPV
5-HT7, sequence (P34969 whole entry): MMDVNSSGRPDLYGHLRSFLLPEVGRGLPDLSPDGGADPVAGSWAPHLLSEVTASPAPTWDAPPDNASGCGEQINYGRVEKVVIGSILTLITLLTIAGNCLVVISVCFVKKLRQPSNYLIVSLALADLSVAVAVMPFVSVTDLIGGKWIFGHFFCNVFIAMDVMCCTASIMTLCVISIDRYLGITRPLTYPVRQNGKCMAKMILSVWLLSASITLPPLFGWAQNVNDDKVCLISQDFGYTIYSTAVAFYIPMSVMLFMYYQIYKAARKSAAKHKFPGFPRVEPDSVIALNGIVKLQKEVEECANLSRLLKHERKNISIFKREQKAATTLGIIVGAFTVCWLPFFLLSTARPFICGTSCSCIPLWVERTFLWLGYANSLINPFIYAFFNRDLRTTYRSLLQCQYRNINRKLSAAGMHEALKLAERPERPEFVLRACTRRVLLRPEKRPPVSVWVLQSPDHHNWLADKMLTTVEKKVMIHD
5-HT2C, sequence (P28335 33-458): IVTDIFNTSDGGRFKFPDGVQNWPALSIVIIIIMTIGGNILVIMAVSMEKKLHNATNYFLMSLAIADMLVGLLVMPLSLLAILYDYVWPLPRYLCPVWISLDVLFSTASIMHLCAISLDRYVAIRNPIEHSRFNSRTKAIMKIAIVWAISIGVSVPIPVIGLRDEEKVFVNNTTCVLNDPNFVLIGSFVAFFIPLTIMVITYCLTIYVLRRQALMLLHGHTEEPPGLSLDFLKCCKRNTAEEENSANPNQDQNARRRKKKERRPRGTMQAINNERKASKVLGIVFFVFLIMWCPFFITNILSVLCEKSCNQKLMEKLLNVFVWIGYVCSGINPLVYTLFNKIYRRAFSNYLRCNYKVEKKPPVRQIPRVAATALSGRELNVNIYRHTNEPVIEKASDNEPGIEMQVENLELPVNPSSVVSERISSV
Dopamine-D2S, sequence (P14416 1-414 isoform P14416-2): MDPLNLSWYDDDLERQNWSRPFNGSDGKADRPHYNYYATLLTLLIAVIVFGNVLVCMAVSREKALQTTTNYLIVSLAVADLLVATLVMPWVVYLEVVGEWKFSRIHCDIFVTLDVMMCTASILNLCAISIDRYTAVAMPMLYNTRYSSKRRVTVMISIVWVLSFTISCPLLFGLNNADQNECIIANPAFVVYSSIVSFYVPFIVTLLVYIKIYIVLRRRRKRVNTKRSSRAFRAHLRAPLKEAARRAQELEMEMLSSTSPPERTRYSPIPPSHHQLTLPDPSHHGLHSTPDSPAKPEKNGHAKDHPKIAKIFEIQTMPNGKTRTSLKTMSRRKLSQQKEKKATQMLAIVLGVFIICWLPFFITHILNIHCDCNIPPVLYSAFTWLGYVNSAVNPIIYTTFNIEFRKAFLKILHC
5-HT1B, sequence (P28564 whole entry): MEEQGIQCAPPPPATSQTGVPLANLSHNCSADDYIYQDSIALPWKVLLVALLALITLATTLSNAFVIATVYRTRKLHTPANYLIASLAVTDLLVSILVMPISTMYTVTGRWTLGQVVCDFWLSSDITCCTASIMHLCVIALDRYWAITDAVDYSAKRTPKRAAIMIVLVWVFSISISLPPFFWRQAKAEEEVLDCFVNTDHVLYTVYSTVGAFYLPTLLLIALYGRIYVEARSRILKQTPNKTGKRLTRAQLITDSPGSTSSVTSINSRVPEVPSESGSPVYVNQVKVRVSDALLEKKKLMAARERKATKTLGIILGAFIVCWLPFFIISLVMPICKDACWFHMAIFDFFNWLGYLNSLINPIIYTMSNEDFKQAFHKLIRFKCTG
α1A-adrenergic, sequence (P43140 whole entry): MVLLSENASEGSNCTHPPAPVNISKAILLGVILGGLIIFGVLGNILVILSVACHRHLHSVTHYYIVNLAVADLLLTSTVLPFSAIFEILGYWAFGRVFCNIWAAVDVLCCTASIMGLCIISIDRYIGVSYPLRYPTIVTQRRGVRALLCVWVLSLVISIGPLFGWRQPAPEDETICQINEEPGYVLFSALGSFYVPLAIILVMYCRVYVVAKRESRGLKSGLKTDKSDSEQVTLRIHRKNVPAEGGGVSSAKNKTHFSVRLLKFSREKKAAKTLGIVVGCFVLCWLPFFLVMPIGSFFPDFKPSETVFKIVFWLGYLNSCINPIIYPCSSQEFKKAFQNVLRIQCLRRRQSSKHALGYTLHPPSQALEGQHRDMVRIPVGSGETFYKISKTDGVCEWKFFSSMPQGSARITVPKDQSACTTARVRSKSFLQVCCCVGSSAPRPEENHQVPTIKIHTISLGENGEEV
5-HT3, sequence (P35563 24-483): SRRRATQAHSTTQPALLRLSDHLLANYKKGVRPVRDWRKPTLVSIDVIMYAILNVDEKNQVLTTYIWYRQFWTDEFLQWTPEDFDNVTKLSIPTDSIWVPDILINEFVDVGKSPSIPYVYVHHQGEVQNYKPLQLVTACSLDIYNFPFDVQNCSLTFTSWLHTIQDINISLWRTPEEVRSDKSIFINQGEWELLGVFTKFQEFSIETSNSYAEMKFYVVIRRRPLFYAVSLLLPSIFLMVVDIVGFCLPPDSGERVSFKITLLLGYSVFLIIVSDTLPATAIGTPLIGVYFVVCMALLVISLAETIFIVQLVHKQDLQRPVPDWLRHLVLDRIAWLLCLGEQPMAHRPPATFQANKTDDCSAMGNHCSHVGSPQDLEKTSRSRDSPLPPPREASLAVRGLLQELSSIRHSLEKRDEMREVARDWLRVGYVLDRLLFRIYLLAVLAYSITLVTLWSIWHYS

What is called ED50 is the dose at which the effect has come halfway, by size or by number of responders. The Ki is the dissociation constant of the complex between target and ligand, obtained from inhibition or displacement. Lower therefore signals higher affinity. As to `C[N+]1([O-])CCN(c2cccc3[nH]c(=O)oc23)CC1` [N-oxide of SLV308, N-Oxide of SLV308], in assay [1], the ED50 was under 1 mg/kg. Further, the Ki is over 1000 nM at 5-HT1B; over 1000 nM on Dopamine-D2S; over 1000 nM at Dopamine-D2; over 1000 nM at β1-adrenergic; 630 nM on α1A-adrenergic; 200 nM on 5-HT1A. Also, the Ki is over 1000 nM on 5-HT7; over 1000 nM on 5-HT1D; over 1000 nM on α1-adrenergic; over 1000 nM on κ-opiate; over 1000 nM on 5-HT3; 400 nM on α2C-adrenergic. In addition, the inhibition constant (Ki) was 130 nM at Dopamine-D4, over 1000 nM at 5-HT2C, over 1000 nM at β2-adrenergic and over 1000 nM on Dopamine-D1. Further, the “Factor by which dopamine-D2 receptor affinities differ (N-oxide vs SLV308)” value at Dopamine-D2 (potency ratio) is at least 100. The “In vitro activity (in words)” value in [2] is “virtually inactive”. Also, the “Factor by which affinities for dopamine-D4 receptors differ (N-oxide vs SLV308)” value on Dopamine-D4 (potency ratio) worked out at 10.
